Patent US4372964A, “Antiinflammatory 4,5-diaryl-1H-imidazole-2-methanols” (E. I. Du Pont de Nemours and Company, priority 1981, dated 1983)
Where two headings read alike, the source gives them in different places.

Tests used:
[1] = tested on: adjuvant-induced arthritis in rats; test: Established Adjuvant-Induced Arthritis in Rats; format: in vivo, Lewis (Wistar) male rats; settings: Rattus norvegicus; for ED50: oral once daily 7 days (days 14-20), decrease from control paw volume, day 21; for inhibition in vivo at 9 mg/kg: Table 3, dose 9 mg/kg
[2] = tested on: phenylquinone writhing in mice; test: Phenylquinone Writhing Test; format: in vivo, female white mice; settings: Mus musculus, oral, observed from 30 minutes after dosing for 10 minutes
Procedure: Aqueous (0.10% phenyl-p-benzoquinone) phenylquinone was injected intraperitoneally at 24 minutes later using 0.20 ml per mouse.

[3] = 168 h, Table 4, dose 25 mg/kg, oral once daily 7 days, read-out: Adjuvant Arthritis, percent reduction in paw volume at the indicated dose
[4] = 168 h, oral once daily 7 days, read-out: Adjuvant Arthritis, percent reduction in paw volume at the indicated dose
[5] = 168 h, Table 3, dose 25 mg/kg, oral once daily 7 days, read-out: Adjuvant Arthritis, percent reduction in paw volume at the indicated dose
[6] = 168 h, Table 3, dose 50 mg/kg, oral once daily 7 days, read-out: Adjuvant Arthritis, percent reduction in paw volume at the indicated dose

CCCC(O)(c1nc(-c2ccc(F)cc2)c(-c2ccc(F)cc2)[nH]1)C(F)(F)F (stereo not drawn) [Example 32]
ED50 ([1]; Table 3, Formula I): 8.6 mg/kg
ED50 ([2]; Table 3, Formula I): > 108 mg/kg

COc1ccc(-c2nc(C(O)C(F)(F)F)[nH]c2-c2ccc(OC)cc2)cc1 (stereo not drawn) [Example 10, 4,5-Bis(4-methoxyphenyl)-α-(trifluoromethyl)-1H-imidazole-2-methanol]
ED50 ([1]; Table 3, Formula I): 45 mg/kg
ED50 ([2]; Table 3, Formula I): 1.9 mg/kg

COc1ccc(-c2nc(C(=O)C(F)(F)F)[nH]c2-c2ccc(OC)cc2)cc1 [Example 9, 1-[4,5-Bis(4-methoxyphenyl)-1H-imidazol-2-yl]2,2,2-trifluoro-1-ethanone]
ED50 ([1]; Table 4, Formula II): 25 mg/kg
ED50 ([2]; Table 4, Formula II): > 108 mg/kg

O=C(c1nc(-c2ccc(F)cc2)c(-c2ccc(F)cc2)[nH]1)C(F)(F)F [Example 8, 1-[4,5-Bis(4-fluorophenyl)-1H-imidazol-2-yl]-2,2,2-trifluoro-1-ethanone]
inhibition in vivo at 25 mg/kg [1, 3]: 49%
ED50 ([2]; Table 4, Formula II): > 108 mg/kg

COc1ccc(-c2nc(C(C)(O)C3CC3)[nH]c2-c2ccc(OC)cc2)cc1 (stereo not drawn) [Example 33]
inhibition in vivo at 9 mg/kg [1, 4]: 46%
ED50 ([2]; Table 3, Formula I): 5.6 mg/kg

COc1ccc(-c2nc(C(C)(O)C(F)(F)C(F)(F)F)[nH]c2-c2ccc(OC)cc2)cc1 (stereo not drawn) [Example 29, 4,5-bis(4-methoxyphenyl)-α-methyl-α-pentafluoroethyl-1H-imidazole-2-methanol]
ED50 ([1]; Table 3, Formula I): 15 mg/kg
ED50 ([2]; Table 3, Formula I): 3.5 mg/kg

O=C(c1nc(-c2ccc(F)cc2)c(-c2ccc(F)cc2)[nH]1)C(F)(F)C(F)(F)F [Example 39, 1-[4,5-bis(4-fluorophenyl)-1H-imidazol-2-yl]-2,2,3,3,3-pentafluoro-1-propanone]
ED50 ([1]; Table 4, Formula II): 3 mg/kg

COc1ccc(-c2nc(C(=O)C(F)(F)C(F)(F)F)[nH]c2-c2ccc(OC)cc2)cc1 [Example 38, 1-[4,5-bis(4-methoxyphenyl)-1H-imidazol-2-yl]-2,2,3,3,3-pentafluoro-1-propanone]
inhibition in vivo at 25 mg/kg [1, 3]: 62%
ED50 ([2]; Table 4, Formula II): 2.3 mg/kg

COc1ccc(-c2nc(C(=O)C(F)(F)F)n(C)c2-c2ccc(OC)cc2)cc1 [Example 36, 1-[4,5-bis(4-methoxyphenyl)-1-methyl-1H-imidazol-2-yl]-2,2,2-trifluoro-1-ethanone]
inhibition in vivo at 25 mg/kg [1, 3]: 28%
ED50 ([2]; Table 4, Formula II): > 108 mg/kg

OC(c1nc(-c2ccccc2)c(-c2ccccc2)[nH]1)(C(F)(F)F)C(F)(F)F [Example 20]
ED50 ([1]; Table 3, Formula I): 27 mg/kg
ED50 ([2]; Table 3, Formula I): 57 mg/kg

CC(O)(c1nc(-c2ccc(F)cc2)c(-c2ccc(F)cc2)[nH]1)C(F)(F)F (stereo not drawn) [Example 3, 4,5-Bis(4-fluorophenyl)-α-methyl-α-trifluoromethyl-1H-imidazole-2-methanol]
ED50 ([1]; Table 3, Formula I): 1.8 mg/kg
ED50 ([2]; Table 3, Formula I): 39 mg/kg

COc1ccc(-c2nc(C(OC)(C(F)(F)F)C(F)(F)F)[nH]c2-c2ccc(OC)cc2)cc1 [Example 7, 4,5-Bis(4-methoxyphenyl)-2-[1-methoxy-2,2,2-trifluoro-1-(trifluoromethyl)ethyl]-1H-imidazole]
ED50 ([1]; Table 3, Formula I): 4.4 mg/kg
ED50 ([2]; Table 3, Formula I): 32 mg/kg

COc1ccc(-c2nc(C(O)(C(F)(F)Cl)C(F)(F)Cl)[nH]c2-c2ccc(OC)cc2)cc1 [Example 13]
ED50 ([1]; Table 3, Formula I): 15 mg/kg
ED50 ([2]; Table 3, Formula I): 135 mg/kg

CSc1ccc(-c2[nH]c(C(=O)C(F)(F)F)nc2-c2ccc(F)cc2)cc1 [Example 37]
inhibition in vivo at 25 mg/kg [1, 3]: 24%
ED50 ([2]; Table 4, Formula II): > 108 mg/kg

COc1ccc(-c2nc(C(C)(O)C(F)(F)F)[nH]c2-c2ccc(OC)cc2)cc1 (stereo not drawn) [Example 18, 4,5-bis(4-methoxyphenyl)-α-methyl-α-trifluoromethyl-1H-imidazole-2-methanol]
ED50 ([1]; Table 3, Formula I): 5.4 mg/kg
ED50 ([2]; Table 3, Formula I): 2.2 mg/kg

COc1ccc(-c2nc(C(O)(C(F)(F)F)C(F)(F)F)n(C)c2-c2ccc(OC)cc2)cc1 [Example 4, 4,5-Bis(4-methoxyphenyl)-1-methyl-α,α-(trifluoromethyl)-1H-imidazole-2-methanol]
ED50 ([1]; Table 3, Formula I): 15 mg/kg
ED50 ([2]; Table 3, Formula I): > 135 mg/kg

CCC(O)(c1nc(-c2ccc(F)cc2)c(-c2ccc(F)cc2)[nH]1)C(F)(F)F (stereo not drawn) [Example 31, 4,5-bis(4-fluorophenyl)-α-ethyl-α-trifluoromethyl-1H-imidazole-2-methanol]
ED50 ([1]; Table 3, Formula I): 1.7 mg/kg
ED50 ([2]; Table 3, Formula I): > 108 mg/kg

OC(c1nc(-c2ccc(F)cc2)c(-c2cccs2)[nH]1)(C(F)(F)F)C(F)(F)F [Example 14]
ED50 ([1]; Table 3, Formula I): 90 mg/kg
ED50 ([2]; Table 3, Formula I): > 108 mg/kg

OC(c1nc(-c2ccc(F)cc2)c(-c2ccc(F)cc2)[nH]1)C(F)(F)C(F)(F)F (stereo not drawn) [Example 23]
ED50 ([1]; Table 3, Formula I): 6.8 mg/kg
ED50 ([2]; Table 3, Formula I): 24 mg/kg

CSc1ccc(-c2[nH]c(C(C)(O)C(F)(F)F)nc2-c2ccc(F)cc2)cc1 (stereo not drawn) [Example 24]
inhibition in vivo at 9 mg/kg [1, 4]: 51%
ED50 ([2]; Table 3, Formula I): 102 mg/kg

Cn1c(C(C)(C)O)nc(-c2ccc(F)cc2)c1-c1ccc(F)cc1 [Example 26]
inhibition in vivo at 25 mg/kg [1, 5]: 47%
ED50 ([2]; Table 3, Formula I): > 108 mg/kg

OC(c1nc(-c2ccc(F)cc2)c(-c2ccc(F)cc2)[nH]1)C(F)(F)F (stereo not drawn) [Example 27]
ED50 ([1]; Table 3, Formula I): 14 mg/kg
ED50 ([2]; Table 3, Formula I): > 108 mg/kg

CC(=O)OC(c1nc(-c2ccc(F)cc2)c(-c2ccc(F)cc2)[nH]1)(C(F)(F)F)C(F)(F)F [Example 25]
ED50 ([1]; Table 3, Formula I): 13 mg/kg
ED50 ([2]; Table 3, Formula I): > 108 mg/kg

CC(=O)c1nc(-c2ccc(F)cc2)c(-c2ccc(F)cc2)[nH]1 [Example 41]
inhibition in vivo at 25 mg/kg [1, 3]: 0%

OC(c1nc(-c2ccccc2)c(-c2ccc(Cl)c(Cl)c2)[nH]1)(C(F)(F)F)C(F)(F)F [Example 17]
inhibition in vivo at 50 mg/kg [1, 6]: 21%

COc1ccc(-c2nc(C(C)O)[nH]c2-c2ccc(OC)cc2)cc1 (stereo not drawn) [Example 35]
ED50 ([1]; Table 3, Formula I): 3.6 mg/kg
ED50 ([2]; Table 3, Formula I): 26 mg/kg

OC(c1nc(-c2ccc(F)cc2)c(-c2ccc(F)cc2)[nH]1)(C(F)F)C(F)(F)F (stereo not drawn) [Example 16, 4,5-bis(4-fluorophenyl)-α-difluoromethyl-α-trifluoromethyl-1H-imidazole-2-methanol]
ED50 ([1]; Table 3, Formula I): 4.8 mg/kg
ED50 ([2]; Table 3, Formula I): > 108 mg/kg

COc1ccc(-c2nc(C(C)(C)O)[nH]c2-c2ccc(OC)cc2)cc1 [Example 30, 4,5-bis(4-methoxyphenyl)-α,α-dimethyl-1H-imidazole-2-methanol]
ED50 ([1]; Table 3, Formula I): 6.4 mg/kg
ED50 ([2]; Table 3, Formula I): 4.6 mg/kg

CC(O)(c1nc(-c2ccc(F)cc2)c(-c2ccc(F)cc2)[nH]1)C(F)(F)C(F)(F)F (stereo not drawn) [Example 11, 4,5-Bis(4-Fluorophenyl)-α-methyl-α-/pentafluoroethyl-1H-imidazole-2-methanol]
ED50 ([1]; Table 3, Formula I): 1.4 mg/kg
ED50 ([2]; Table 3, Formula I): > 108 mg/kg

CSc1ccc(-c2[nH]c(C(O)(C(F)(F)F)C(F)(F)F)nc2-c2ccc(F)cc2)cc1 [Example 21]
inhibition in vivo at 15 mg/kg ([1]; 168 h, Table 3, dose 15 mg/kg, oral once daily 7 days, read-out: Adjuvant Arthritis, percent reduction in paw volume at the indicated dose): 61%

CCC(C)(O)c1nc(-c2ccc(OC)cc2)c(-c2ccc(OC)cc2)[nH]1 (stereo not drawn) [Example 34]
inhibition in vivo at 50 mg/kg [1, 6]: 82%
ED50 ([2]; Table 3, Formula I): 5.2 mg/kg

CCOC(=O)OC(c1nc(-c2ccc(OC)cc2)c(-c2ccc(OC)cc2)n1C)(C(F)(F)F)C(F)(F)F [Example 6, 4,5-Bis(4-methoxyphenyl)-1-methyl-α,α-di(trifluoromethyl)-1H-imidazole-2-methanol, Ethylcarbonate]
inhibition in vivo at 45 mg/kg ([1]; 168 h, Table 3, dose 45 mg/kg, oral once daily 7 days, read-out: Adjuvant Arthritis, percent reduction in paw volume at the indicated dose): 17%
ED50 ([2]; Table 3, Formula I): > 108 mg/kg

COc1ccc(-c2nc(C(O)C(F)(F)F)n(C)c2-c2ccc(OC)cc2)cc1 (stereo not drawn) [Example 19]
inhibition in vivo at 27 mg/kg ([1]; 168 h, Table 3, dose 27 mg/kg, oral once daily 7 days, read-out: Adjuvant Arthritis, percent reduction in paw volume at the indicated dose): 0%
ED50 ([2]; Table 3, Formula I): > 108 mg/kg

COc1ccc(-c2nc(C(O)(C(F)F)C(F)(F)F)[nH]c2-c2ccc(OC)cc2)cc1 (stereo not drawn) [Example 15, 4,5-bis(4-methoxyphenyl)-α-difluoromethyl-α-trifluoromethyl-1H-imidazole-2-methanol]
ED50 ([1]; Table 3, Formula I): 3 mg/kg
ED50 ([2]; Table 3, Formula I): 1.4 mg/kg

COc1ccc(-c2nc(C(O)(C(F)(F)F)C(F)(F)Cl)[nH]c2-c2ccc(OC)cc2)cc1 (stereo not drawn) [Example 12]
ED50 ([1]; Table 3, Formula I): 6 mg/kg
ED50 ([2]; Table 3, Formula I): 42 mg/kg

COc1ccc(-c2nc(C(C)=O)[nH]c2-c2ccc(OC)cc2)cc1 [Example 40]
inhibition in vivo at 50 mg/kg ([1]; 168 h, Table 4, dose 50 mg/kg, oral once daily 7 days, read-out: Adjuvant Arthritis, percent reduction in paw volume at the indicated dose): 56%
ED50 ([2]; Table 4, Formula II): > 135 mg/kg

COc1ccc(-c2nc(C(O)(C(F)(F)F)C(F)(F)F)[nH]c2-c2ccc(OC)cc2)cc1 [Example 2, 4,5-Bis(4-methoxyphenyl)-α,α-di(trifluoromethyl)-1H-imidazole-2-methanol]
ED50 ([1]; Table 3, Formula I): 5 mg/kg
ED50 ([2]; Table 3, Formula I): 2.7 mg/kg

OC(c1nc(-c2ccc(F)cc2)c(-c2ccc(F)cc2)[nH]1)(C(F)(F)F)C(F)(F)F [Example 1, 4,5-Bis(4-fluorophenyl)-α,α-di(trifluoromethyl)-1H-imidazole-2-methanol]
ED50 ([1]; Table 3, Formula I): 8 mg/kg
ED50 ([2]; Table 3, Formula I): > 108 mg/kg

OC(c1nc(-c2ccc(Cl)cc2)c(-c2ccc(Cl)cc2)[nH]1)(C(F)(F)F)C(F)(F)F [Example 22]
inhibition in vivo at 9 mg/kg [1, 4]: 37%
ED50 ([2]; Table 3, Formula I): > 135 mg/kg

COc1ccc(-c2nc(C(OC(C)=O)(C(F)(F)F)C(F)(F)F)n(C)c2-c2ccc(OC)cc2)cc1 [Example 5, 4,5-Bis(4-methoxyphenyl)-1-methyl-α,α-di(trifluoromethyl)-1H-imidazole-2-methanol, Acetate]
inhibition in vivo at 25 mg/kg [1, 5]: 45%
ED50 ([2]; Table 3, Formula I): > 108 mg/kg

CC(C)(O)c1nc(-c2ccc(F)cc2)c(-c2ccc(F)cc2)[nH]1 [Example 28]
inhibition in vivo at 50 mg/kg [1, 6]: 48%
ED50 ([2]; Table 3, Formula I): > 108 mg/kg
